Results: patent US20110097745A1, “Method For Detecting Microbes” (priority 2007, published 2011)
Converted amounts (≈) assume the structure as drawn.

What was measured:
[1] = system: infecting bacteria of urine samples; assay: BLT antibiotic susceptibility of urine samples; assay type: cell-based; design: BLT (luminescence): unit not given here; details: for BLT (luminescence): 3 hrs 37 C, concentrations given in Table 5; for antibiotic susceptibility of urine samples: key: R = resistant; S = susceptible
Description: Six fresh urine samples were obtained from a local clinic and examined for bacteriuria (>10^5 cells/mL urine) and the antibiotic susceptibility of the infecting bacteriuria. A tube containing a an antibiotic mixture that would eliminate all infecting bacteria but not effect the lux cells (Ampicillin, Kanamycin, Tetracyclin, and Chloramphenicol) served as a control.
Each urine sample was diluted in Medium 1 to yield a final concentration of 3%. 0.1 mL of the diluted samples were then incubated for 3 hrs. at 37 degrees Celsius in a microtitre plate, with or without an antimicrobial substance at the concentrations given in Table 5).
An equal volume of Medium 2 containing 10 ng/ml autoinducer and supplemented with 10^6 of the lux cells was then added to each well. The microtiter plate was then incubated at 28 degrees/Celsius and the luminescence was measured using a plate reader luminometer.
Luminescence was measured in the absence of antibiotics, in the presence of a mixture of antibiotics and in the presence of a single antibiotic from the mixture.
When the ratio of the luminescence measured in the presence of the single antibiotic to that measured in the presence of the antibiotic mix exceeds a second predetermined constant (e.g. 3) then the infecting bacteria are […] to the antibiotic.

[2] = system: infecting bacteria of urine samples; assay: antibiotics disc inhibition zone, urine samples (standard analysis); assay type: cell-based
Description: A standard analysis (urine culture colony count) was performed to evaluate bacterial load (Table 5a) and antibiotic susceptibility (Table 5b).

E. coli (W4110) = assay: overnight disk diffusion test; assay type: cell-based; details: 16 hrs 37 C
Description: (§1) Infecting bacteria (10^6 cells/ml from overnight grown cultures) were spread on LA plates on which 15 mm disks, saturated with various antibiotics, had been placed. After incubating the plates at 37 degrees Celsius for 16 hrs the zone of inhibition was determined for each strain. (Abbreviations used in FIG. 1a and Table 1a: CAP—Chloramphenicol; KAN—Kanamycin; AMP—Ampicillin; CEP—Cephamezin GEN—Gentamycin).

S. typhimirium (772) = assay: overnight disk diffusion test; assay type: cell-based; details: 16 hrs 37 C
Description: as §1

S. typhi = assay: microbe, parasite or virus in culture; assay type: cell-based
P. aeroginosa = assay: overnight disk diffusion test; assay type: cell-based; details: disk 10 ppm, 16 hrs 37 C
Description: as §1

S. aureus = assay: BLT (bioluminescence test) MIC determination

Row | Compound | antibiotic susceptibility of urine samples ([1]; urine sample 1) | BLT (luminescence) ([1]; urine sample 1, 3% urine) | antibiotic susceptibility of urine samples ([1]; urine sample 2) | BLT (luminescence) ([1]; urine sample 2, 3% urine) | antibiotic susceptibility of urine samples ([1]; urine sample 3) | BLT (luminescence) ([1]; urine sample 3, 3% urine) | antibiotic susceptibility of urine samples ([1]; urine sample 4) | BLT (luminescence) ([1]; urine sample 4, 3% urine) | antibiotic susceptibility of urine samples ([1]; urine sample 5) | BLT (luminescence) ([1]; urine sample 5, 3% urine) | antibiotic susceptibility of urine samples ([1]; urine sample 6) | BLT (luminescence) ([1]; urine sample 6, 3% urine) | Antibiotics disc inhibition zone ([2]; urine sample 1, 30 ppm) [mm] | Antibiotics disc inhibition zone ([2]; urine sample 2, 30 ppm) [mm] | Antibiotics disc inhibition zone ([2]; urine sample 3, 30 ppm) [mm] | Antibiotics disc inhibition zone ([2]; urine sample 4, 30 ppm) [mm] | Antibiotics disc inhibition zone ([2]; urine sample 6, 30 ppm) [mm] | also measured
1 | CC1(C)S[C@@H]2[C@H](NC(=O)[C@H](N)c3ccccc3)C(=O)N2[C@H]1C(=O)O [Ampicillin] | R | 1 | R | 0.144 | S | 5.11 | S | 30 | R | 0.42 | S | 18 |  |  |  |  |  | Antibiotics disc inhibition zone ([2]; urine sample 1, 40 ppm): 0 mm; Antibiotics disc inhibition zone ([2]; urine sample 2, 40 ppm): 0 mm; Antibiotics disc inhibition zone ([2]; urine sample 3, 40 ppm): 5 mm; Antibiotics disc inhibition zone ([2]; urine sample 4, 40 ppm): 7 mm; Antibiotics disc inhibition zone ([2]; urine sample 6, 40 ppm): 5 mm; zone of inhibition (E. coli (W4110); disk 40 ppm): 40 mm; zone of inhibition (S. typhimirium (772); disk 40 ppm): 30 mm
2 | CO/N=C(\C(=O)N[C@@H]1C(=O)N2C(C(=O)O)=C(COC(N)=O)CS[C@H]12)c1ccco1 [Cefuroxime] | S | 55 | S | 1.36 | S | 2.4 | S | 31 | S | 8.6 | S | 0.76 | 6 | 7 | 5 | 5 | 4 | 
3 | Cc1nnc(SCC2=C(C(=O)O)N3C(=O)[C@@H](NC(=O)Cn4cnnn4)[C@H]3SC2)s1 [Cephamezin] | S | 61 | S | 2.3 | S | 21.8 | S | 30 | S | 16 | S | 36.8 | 7 | 5 | 7 | 5 | 6 | zone of inhibition (E. coli (W4110); disk 30 ppm): 30 mm; zone of inhibition (S. typhimirium (772); disk 30 ppm): 40 mm
4 | NC[C@H]1O[C@H](O[C@H]2[C@H](O)[C@@H](O[C@H]3O[C@H](CO)[C@@H](O)[C@H](N)[C@H]3O)[C@H](N)C[C@@H]2N)[C@H](O)[C@@H](O)[C@@H]1O [Kanamicin, Kanamycin] | S | 64 | S | 42 | S | 49 | S | 30 | S | 16 | S | 38 | 5 | 5 | 5 | 2 | 1 | zone of inhibition (E. coli (W4110); disk 30 ppm): 25 mm; zone of inhibition (S. typhimirium (772); disk 30 ppm): 20 mm; LU, fold increase over control (no antibiotics added) (S. typhi; 0.117 ppm): 1.4; LU, fold increase over control (no antibiotics added) (S. typhi; 0.234 ppm): 1.62; LU, fold increase over control (no antibiotics added) (S. typhi; 0.468 ppm): 1.49; LU, fold increase over control (no antibiotics added) (S. typhi; 0.937 ppm): 1.82; LU, fold increase over control (no antibiotics added) (S. typhi; 1.875 ppm): 2.3; LU, fold increase over control (no antibiotics added) (S. typhi; 3.75 ppm): 2.45; LU, fold increase over control (no antibiotics added) (S. typhi; 7.5 ppm): 3.13; LU, fold increase over control (no antibiotics added) (S. typhi; 15 ppm): 5.79; LU, fold increase over control (no antibiotics added) (S. typhi; 30 ppm): 6.27; MIC (S. typhi; Salmonella enterica, TYPHI, lowest concentration giving two-fold increase of tester luminescence above control): ~1 µg/mL (≈ 2.06 µM)
5 | Cc1onc(-c2ccccc2Cl)c1C(=O)N[C@@H]1C(=O)N2[C@@H]1SC(C)(C)[C@@H]2C(=O)[O-].[Na+] [Orbenil] | R | 0.8 | R | 0.087 | R | 0.76 | S | 30 | R | 0.63 | R | 0.18 |  |  |  |  |  | Antibiotics disc inhibition zone ([2]; urine sample 1, 10 ppm): 0 mm; Antibiotics disc inhibition zone ([2]; urine sample 2, 10 ppm): 0 mm; Antibiotics disc inhibition zone ([2]; urine sample 3, 10 ppm): 0 mm; Antibiotics disc inhibition zone ([2]; urine sample 4, 10 ppm): 6 mm; Antibiotics disc inhibition zone ([2]; urine sample 6, 10 ppm): 0 mm
6 | CC1(C)S[C@@H]2[C@H](NC(=O)Cc3ccccc3)C(=O)N2[C@H]1C(=O)O [Penicillin G] | R | 0.5 | R | 0.93 | S | 4 | S | 30 | R | 0.417 | S | 11 |  |  |  |  |  | Antibiotics disc inhibition zone ([2]; urine sample 1, 40 ppm): 0 mm; Antibiotics disc inhibition zone ([2]; urine sample 2, 40 ppm): 0 mm; Antibiotics disc inhibition zone ([2]; urine sample 3, 40 ppm): 3 mm; Antibiotics disc inhibition zone ([2]; urine sample 4, 40 ppm): 7 mm; Antibiotics disc inhibition zone ([2]; urine sample 6, 40 ppm): 2 mm
7 | Gentamycin [Gentamicin] | S | 53 | S | 44 | S | 30 | S | 36 | S | 11.5 | S | 35 |  |  |  |  |  | Antibiotics disc inhibition zone ([2]; urine sample 1, 10 ppm): 4 mm; Antibiotics disc inhibition zone ([2]; urine sample 2, 10 ppm): 5 mm; Antibiotics disc inhibition zone ([2]; urine sample 3, 10 ppm): 6 mm; Antibiotics disc inhibition zone ([2]; urine sample 4, 10 ppm): 2 mm; Antibiotics disc inhibition zone ([2]; urine sample 6, 10 ppm): 5 mm; zone of inhibition (E. coli (W4110); disk 10 ppm): 15 mm; zone of inhibition (S. typhimirium (772); disk 10 ppm): 20 mm; zone of inhibition (P. aeroginosa): 20 mm; LU, fold increase over control (no antibiotics added) (S. aureus; 0.39 ppm): 1.2; LU, fold increase over control (no antibiotics added) (S. aureus; 0.781 ppm): 1.2; LU, fold increase over control (no antibiotics added) (S. aureus; 1.562 ppm): 1.3; LU, fold increase over control (no antibiotics added) (S. aureus; 3.125 ppm): 1.5; LU, fold increase over control (no antibiotics added) (S. aureus; 6.25 ppm): 3.1; LU, fold increase over control (no antibiotics added) (S. aureus; 12.5 ppm): 3.6; LU, fold increase over control (no antibiotics added) (S. aureus; 25 ppm): 3.4; LU, fold increase over control (no antibiotics added) (S. aureus; 50 ppm): 6.5; MIC (S. aureus; lowest concentration giving two-fold increase of tester luminescence above control): 3.12-6.2 ppm
